{"source": "patent US20220016196A1", "about": "“Aloe Based Compositions Comprising Polysaccharides and Polyphenols for Regulation of Homeostasis of Immunity” (Unigen, Inc., priority 2020, published 2022)", "key": {"TNF-α": {"tested_on": "TNF-α", "assay": "LPS-induced acute lung injury, serum TNF-α ELISA", "type": "in vivo, rat", "conditions": "rats", "description": "(§1) The study was designed to evaluate the direct impact of an Aloe-based composition (UP360) made in the Example 9 in alleviating LPS-induced acute lung injury administered orally at 500 mg/kg and 250 mg/kg. […] In this study, we treated rats with the test materials orally for 7 days before model induction with LPS. On the 8th day, an hour after oral treatment, LPS was instilled intratracheally (i.t.) at 10 mg/kg dissolved in 0.1 mL/100 g PBS to each rat. The normal control rats received the same volume i.t. PBS only.\n(§2) We sacrificed surviving animals 24 hours after intratracheal LPS administration to the rats. At necropsy, collected bronchoalveolar lavage (BAL) by intratracheal injection of 1.5 mL PBS into the right lobe followed by gentle aspiration at least 3 times. Pooled recovered fluid, centrifuged at 1500 rpm for 10 min at 4 ° C., and was used to measure cytokines (e.g. IL-6) and pulmonary protein levels. […]\n(§3) The presence of TNF-α in undiluted rat serum from Example 23 was measured using the rat TNF-α Quantikine ELISA kit from R&D Systems (product#: RTA00) as follows: undiluted serum was added to a microplate coated with TNF-α antibody. […] After developing for 30 minutes at room temperature, a stop solution was added, and the absorbance was read at 450 nm. The concentration of TNF-α was calculated based on the absorbance readings of a TNF-α standard curve."}, "IL-1β": {"tested_on": "IL-1β", "assay": "LPS-induced acute lung injury, serum IL-1β ELISA", "type": "in vivo, rat", "conditions": "rats", "description": "as §1, §2\nas §3, with “IL-1β” for “TNF-α”, “Rat IL-1β” for “rat TNF-α”, “RLBOO)” for “RTA00)”, “an IL-1β” for “a TNF-α”"}}, "data": [{"smiles": "CCCC(=O)[O-].[Na+]", "note": "[Sodium Butyrate]", "values": [{"measurement": "serum TNF-α level, Mean ± SD", "setting": "TNF-α; LPS 10 mg/kg i.t., 24 hours post, oral 7 days pre-treatment, 500 mg/kg", "result": "3.35 ± 1.73", "unit": "pg/mL"}, {"measurement": "reduction in serum TNF-α level vs vehicle control", "setting": "TNF-α; LPS i.t., 500 mg/kg oral", "result": 67.9, "unit": "%"}, {"measurement": "serum IL-1β level, Mean ± SD", "setting": "IL-1β; LPS 10 mg/kg i.t., 24 hours post, oral, 500 mg/kg", "result": "22.58 ± 9.46", "unit": "pg/mL"}, {"measurement": "reduction in serum IL-1β vs vehicle", "setting": "IL-1β; LPS i.t., 500 mg/kg oral", "result": 65.3, "unit": "%"}]}]}
